Data on four compounds can be found in US11344553B2, “Substituted pyrazolopyrimidines useful as kinases inhibitors” (TELIGENE LTD, priority 2017, dated 2022).

In series [1] the test system is TEL-NTRK1-BaF3 cell. Description: TEL-NTRK1-BaF3 cell assay (CellTiter-Glo viability, 72 hours). The series is classed as cell-based. The protocol: (b) A Representative Number of Compounds were Assayed Against TEL-NTRK1-BaF3 Cell.
I. Prepare Compound Plate
Compounds to be assayed were dissolved in 100% DMSO to prepare a […] mother solution, which underwent 3× series dilution to prepare solutions with concentrations of 10 mM, 3.333 mM, 1.111 mM, 0.370 mM, 0.123 mM, 0.041 mM, 0.014 mM, all of which stored in 0.5 mL sterile eppendorf (Corning, N.Y., USA). At the same time prepare a blank sample as control containing DMSO only with the same volume as the compound solutions. The 9 samples on the Compound plate were store at −20° C. in vacuum.
II. Cell Culture Conditions
TEL-NTRK1-BaF3 cell line was cultured in RPMI 1640 (Corning, N.Y., USA)+10% fetal calf serum (Gibco/Invitrogen, USA) for two generations after resuscitation. Stored for future use.
III. Assay and Data Analysis
Cells (2,000-2,500 cells per well) at log phase were harvested and inoculated in wells of a white, opaque cell culture plate (Corning 3570, NY, USA). The volume of suspensions comprising cells in each well was 100 μL. Compounds from the Compound plate were added 0.1 μL per well to the cell culture plate to reach a final compound concentrations of 10 μM, 3.3 μM, 1.1 μM, 0.37 μM, 0.12 μM, 0.04 μM, and 0.014 μM. Incubated at 37° C. and 5% CO2 culture chamber for 72 hours. Ten μL CellTiter-Glo® Luminescent Cell Viability Assay Reagent was added to each well, wait for 10 minutes, then read using Evision Plate-Reader.
The following Table B lists compounds representative of the disclosure and their activity in TEL-NTRK1-BaF3 Cell assay.
(ATP-based viability assays read luminescence as a measure of living cells.)

Series [2] in a line: Solubility measurement in pH 4.0 buffer (HPLC). The series is classed as physicochemical. As to conditions: pH 4.0 buffer solution (20 mM), aqueous buffer, thermodynamic from solid; pH 4.0 buffer (20 mM), 25° C. The protocol:
(c) Solubility Measurement of a Representative Number of Compounds
Solubility measurement procedure may include:
Preparation of reference standard solution: 2 mg of the testing compound was added individually to 100 mL volumetric flask each. The compound was diluted with acetonitrile to 100 mL.
Preparation of sample solution: 2 mg of the testing compound was added individually to 2 mL eppendorf tube (EP), followed by the addition of 1 mL of pH 4.0 buffer solution (20 mM). The solution was shaken for 2 minutes and left for 30 minutes at 25° C. After standing for 30 minutes, precipitate was formed at the bottom of the EP. The solution was filtered through a 0.2 μm membrane filter, and then diluted by 50 times with water.
The standard and sample solutions were injected into the HPLC on a Shim-Pack CLC-ODS C18 column (150 mm×6.0 mm, Sum) with the same volume. The mobile phase consists of acetonitrile with 2% trichloromethane—20 mM KH2PO4 buffer (pH=7.0) at a flow rate of 1 mL/minutes (40:60). The detection wavelength was at 264 nm. Calculation: solubility of sample=the concentration of standard×Area of sample×50/Area of standard.
The following Table C lists solubility data for selected compounds.

Series [3] has as its target TRK-A (Homo sapiens (Human), UniProt P04629). Kind of series: In vitro kinase activity inhibition assay (Caliper), TRK-A. The series is classed as biochemical. The method, then:
(§1) (a) An In Vitro Assay which Determines the Ability of a Test Compound to Inhibit Kinase Activity
(§2) I. Prepare 1× Kinase Base Buffer and Stop Buffer for Testing Kinases
1) 1× Kinase base buffer (for TRK-A)
(§3) II. Prepare Source Plate with Compound
(§4) 1) Dilute the compound to 50× of the final concentration in reaction by 100% DMSO. Transfer 100 μl of this compound dilution to a well in a 96-well plate. For example, if the desired highest inhibitor concentration is 10 μM, then prepare a 500 μM of compound DMSO solution in this step.
(§5) 2) Perform 3× series dilution of the compound dilution obtained in step 1) with 100% DMSO to provide 9 more diluted solutions of the compound.
(§6) 3) Add 100 μl of 100% DMSO to two empty wells for no compound control and no enzyme control in the same 96-well plate. Mark the plate as source plate.
(§7) 4) Prepare intermediate plate
(§8) Transfer 10 μl of compound from the source plate to a new 96-well plate as the intermediate plate.
(§9) Add 90 μl of 1× Kinase base buffer to each well of the intermediate plate.
(§10) Mix the compounds in intermediate plate for […] on a shaker.
Transfer 5 μl of each well from the 96-well intermediate plate to a 384-well plate in duplicates. For example, A1 of the 96-well plate is transferred to A1 and A2 of the 384-well plate. A2 of the 96-well plate is transferred to A3 and A4 of the 384-well plate, and so on. […]

Series [4] has as its target ROS1 (Homo sapiens (Human), UniProt P08922). Description: In vitro kinase activity inhibition assay (Caliper), ROS1. The series is classed as biochemical. As to conditions: read-out: ROS-1 IC50. The protocol:
as §1, §2, §3, §4, §5, §6, §7, §8, §9, §10
Transfer 5 μl of each well from the 96-well intermediate plate to a 384-well plate in duplicates. For example, A1 of the 96-well plate is transferred to A1 and A2 of the 384-well plate. A2 of the 96-well plate is transferred to A3 and A4 of the 384-well plate, and so on.
1) Prepare 2.5× enzyme solution Add kinase in 1× kinase base buffer. […]

Series [5] is described as follows: Pharmacokinetic study, IV and oral, bioavailability. Format: in vivo. As to conditions: plasma, oral; rat; 2 mg/kg IV, 5 mg/kg orally; read-out: F (%) oral bioavailability. From the text:
(d) Pharmacokinetic Study of a Representative Number of Compounds A representative protocol for the PK (pharmacokinetic) assay was as followed: Compounds were given either IV or orally to the same animals. […] Analysis: LC-MS/MS was used to calculate PK parameters: t1/2, tmax, Cmax, Vss and AUC, etc. The following TABLE D lists selected compounds and their bioavailability.

A short description of series [6]: Brain penetration (brain to plasma ratio). The series is classed as in vivo.
Series [7] can be described thus: One-month toxicity study in rat. The series is classed as in vivo. The following applies: 30 mg/kg and 100 mg/kg, end of administration and recovery periods. The protocol: A representative number of compounds, including Compound 1 (LOXO-101) and Compound 3, were tested in a typical one-month toxicity studies in rat with dosages of 30 mg/kg and 100 mg/kg.

Values after ≈ are worked out from the molar mass of the structure shown. Read-outs that look alike come from different tables or passages of the source.

Sequence of TRK-A (P04629 33-796, species assumed): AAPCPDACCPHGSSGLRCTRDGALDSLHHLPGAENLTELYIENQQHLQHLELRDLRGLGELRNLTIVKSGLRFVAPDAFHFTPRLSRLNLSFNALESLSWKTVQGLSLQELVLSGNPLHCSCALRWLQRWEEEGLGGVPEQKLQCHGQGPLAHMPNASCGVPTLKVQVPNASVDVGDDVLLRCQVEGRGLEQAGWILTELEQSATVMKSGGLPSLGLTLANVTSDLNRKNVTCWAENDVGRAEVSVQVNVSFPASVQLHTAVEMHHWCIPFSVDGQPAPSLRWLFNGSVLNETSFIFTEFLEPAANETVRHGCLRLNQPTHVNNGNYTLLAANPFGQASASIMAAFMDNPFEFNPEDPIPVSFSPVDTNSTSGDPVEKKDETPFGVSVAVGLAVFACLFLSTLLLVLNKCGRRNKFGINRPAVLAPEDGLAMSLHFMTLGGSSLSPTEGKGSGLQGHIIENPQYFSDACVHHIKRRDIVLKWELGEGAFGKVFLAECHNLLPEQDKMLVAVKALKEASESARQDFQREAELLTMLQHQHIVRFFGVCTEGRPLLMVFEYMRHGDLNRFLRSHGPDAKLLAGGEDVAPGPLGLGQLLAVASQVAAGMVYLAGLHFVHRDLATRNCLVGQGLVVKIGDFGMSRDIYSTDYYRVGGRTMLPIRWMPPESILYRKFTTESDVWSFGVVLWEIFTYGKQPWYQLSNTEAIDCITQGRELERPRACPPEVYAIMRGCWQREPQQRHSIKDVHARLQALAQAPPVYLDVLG
Sequence of ROS1 (P08922 28-2347, species assumed): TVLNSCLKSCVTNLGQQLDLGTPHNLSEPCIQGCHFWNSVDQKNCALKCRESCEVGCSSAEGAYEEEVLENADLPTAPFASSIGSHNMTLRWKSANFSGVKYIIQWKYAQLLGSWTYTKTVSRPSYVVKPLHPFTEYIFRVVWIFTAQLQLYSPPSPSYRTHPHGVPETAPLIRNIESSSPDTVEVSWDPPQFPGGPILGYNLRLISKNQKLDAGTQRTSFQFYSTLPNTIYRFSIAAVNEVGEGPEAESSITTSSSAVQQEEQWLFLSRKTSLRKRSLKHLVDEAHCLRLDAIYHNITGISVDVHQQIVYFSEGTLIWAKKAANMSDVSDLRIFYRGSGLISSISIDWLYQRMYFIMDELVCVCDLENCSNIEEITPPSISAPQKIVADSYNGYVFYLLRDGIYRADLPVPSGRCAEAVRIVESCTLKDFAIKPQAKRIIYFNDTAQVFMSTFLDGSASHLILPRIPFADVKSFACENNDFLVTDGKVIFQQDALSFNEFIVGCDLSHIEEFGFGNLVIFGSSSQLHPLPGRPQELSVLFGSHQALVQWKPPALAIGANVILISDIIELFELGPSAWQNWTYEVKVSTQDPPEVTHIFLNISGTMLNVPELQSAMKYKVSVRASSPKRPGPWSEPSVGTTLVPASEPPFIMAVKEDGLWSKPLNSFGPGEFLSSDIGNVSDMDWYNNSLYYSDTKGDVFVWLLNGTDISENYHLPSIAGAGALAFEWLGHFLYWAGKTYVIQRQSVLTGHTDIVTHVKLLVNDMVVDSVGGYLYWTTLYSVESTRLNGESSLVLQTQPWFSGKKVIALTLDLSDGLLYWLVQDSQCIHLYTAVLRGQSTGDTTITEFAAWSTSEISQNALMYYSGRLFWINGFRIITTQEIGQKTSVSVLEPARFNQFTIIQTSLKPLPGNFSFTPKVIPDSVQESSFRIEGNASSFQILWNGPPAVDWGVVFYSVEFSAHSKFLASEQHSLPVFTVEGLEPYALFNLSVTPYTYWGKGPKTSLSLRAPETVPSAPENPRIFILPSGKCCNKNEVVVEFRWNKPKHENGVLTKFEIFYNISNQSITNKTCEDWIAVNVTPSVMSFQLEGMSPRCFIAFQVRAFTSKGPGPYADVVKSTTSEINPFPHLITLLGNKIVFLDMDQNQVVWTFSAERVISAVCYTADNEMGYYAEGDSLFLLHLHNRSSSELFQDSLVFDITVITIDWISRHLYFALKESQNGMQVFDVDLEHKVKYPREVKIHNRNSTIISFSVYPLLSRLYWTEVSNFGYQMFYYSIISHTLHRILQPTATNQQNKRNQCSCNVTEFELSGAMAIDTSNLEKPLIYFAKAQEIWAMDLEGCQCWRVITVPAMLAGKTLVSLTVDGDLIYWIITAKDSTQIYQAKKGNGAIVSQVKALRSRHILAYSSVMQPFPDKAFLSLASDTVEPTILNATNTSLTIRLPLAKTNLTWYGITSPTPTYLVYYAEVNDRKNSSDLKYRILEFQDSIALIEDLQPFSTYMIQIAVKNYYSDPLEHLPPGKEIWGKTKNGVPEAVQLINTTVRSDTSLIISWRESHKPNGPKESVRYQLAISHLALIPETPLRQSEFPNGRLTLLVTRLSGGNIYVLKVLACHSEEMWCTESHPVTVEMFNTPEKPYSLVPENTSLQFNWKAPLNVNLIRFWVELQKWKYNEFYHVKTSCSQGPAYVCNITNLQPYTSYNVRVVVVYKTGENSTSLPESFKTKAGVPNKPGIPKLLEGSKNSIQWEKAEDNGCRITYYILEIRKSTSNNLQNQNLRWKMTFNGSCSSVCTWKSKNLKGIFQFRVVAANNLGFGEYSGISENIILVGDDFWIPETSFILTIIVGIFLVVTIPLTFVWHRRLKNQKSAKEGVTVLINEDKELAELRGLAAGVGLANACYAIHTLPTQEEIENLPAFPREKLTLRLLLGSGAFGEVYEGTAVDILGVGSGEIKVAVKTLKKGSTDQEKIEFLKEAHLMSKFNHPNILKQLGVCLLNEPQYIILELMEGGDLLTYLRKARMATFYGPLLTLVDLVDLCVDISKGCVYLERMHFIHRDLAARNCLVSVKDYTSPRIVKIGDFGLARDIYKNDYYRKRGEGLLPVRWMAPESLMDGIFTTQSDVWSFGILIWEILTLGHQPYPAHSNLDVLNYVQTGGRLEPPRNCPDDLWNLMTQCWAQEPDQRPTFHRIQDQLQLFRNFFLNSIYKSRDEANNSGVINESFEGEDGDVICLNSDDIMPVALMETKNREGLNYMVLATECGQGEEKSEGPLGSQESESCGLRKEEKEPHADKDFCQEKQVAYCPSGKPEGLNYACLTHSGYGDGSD

As a reminder, the GI50 is the concentration that inhibits growth by half. Read a high GI50 as lower sensitivity of the cells. One may read the solubility as how much of the substance goes into solution per volume. Low values mean little dissolved substance, high ones much dissolved substance. Take `CCS(=O)(=O)Nc1ccc(C(=O)Nc2cnn3ccc(N4CCC[C@@H]4c4cc(F)ccc4F)nc23)cc1` [Compound 4]: in series [1] (72 h), the concentration for 50% growth inhibition (GI50) was 24 nM. Further, in series [2], the concentration in solution (solubility) was 310 µg/mL (≈ 589 µM).

As usually defined, the IC50 is the concentration needed to halve the response being measured. One may read the bioavailability as the share of a dose that reaches the circulation, judged against a reference dose that is usually intravenous. One may read the Kp as tissue or fluid exposure divided by exposure in the circulation. As for `CN1CCN(Cc2ccc(C(=O)Nc3cnn4ccc(N5CCC[C@@H]5c5cc(F)ccc5F)nc34)cc2)CC1` [Compound 3], the IC50 came out at 3 nM in series [3] and 104 nM in series [4]. The GI50 in series [1] was 3 nM. The same compound returned a solubility in series [2] of 36100 µg/mL (≈ 67900 µM). For the same compound, in series [5], the bioavailability was 56%. Also, the Kp in series [6] (brain) was 5.47.

Take `CN1CCN(Cc2ccc(C(=O)Nc3cnn4ccc(N5CCC[C@@H]5c5cc(F)ccc5F)nc34)cc2)CC1` [Compound 2]: in series [3], half-maximal inhibition (IC50) was put at 1.8 nM. For the same compound, in series [1], the GI50 was less than 1 nM.

In series [1] (72 h), `O=C(Nc1cnn2ccc(N3CCC[C@@H]3c3cc(F)ccc3F)nc12)N1CC[C@H](O)C1` [Compound 1, reference compound] displayed a GI50 of 25 nM. In series [2], the solubility came out at 310 µg/mL (≈ 724 µM). Also, in series [5], the bioavailability came to 33%. In series [6] (in vivo), the brain penetration result is reported as “low brain penetration”. For the same compound, in series [7], the “#LYMPH and/or % LYMPH in blood” value is “slight decrease” and the “#NEUT and/or % NEUT in blood” value was “slight increase trend”.
